US20230406850A1, “CRYSTALLINE FORM OF HETEROCYCLIC COMPOUND, PREPARATION METHOD THEREFOR AND APPLICATION THEREOF” (WUHAN LL SCIENCE AND TECHNOLOGY DEVELOPMENT CO., LTD., priority 2020, published 2023)
Values after ≈ are worked out from the molar mass of the structure shown.

Assay: Solubility in biological media SGF, FaSSIF and FeSSIF
Format: physicochemical
Procedure: Compared with other crystalline forms, crystalline forms I, III and V show good solid properties, so their solubility was tested respectively.
10 mg of the sample was weighed, and then 2.0 mL of biological media buffer (i.e. the target concentration is 5 mg/mL) was added to form a suspension. The mixture was put in a constant temperature water bath shaker (37° C., 100 rpm), and sampled 500 μL at 0.5, 2 and 24 hours respectively. After filtration, the pH value and HPLC concentration of filtrate were tested respectively, and the solid sample obtained by filtration was tested by XRPD.

SMILES: COC(=O)N1CCO[C@@H](Cc2c(-c3c(F)cc(S(N)(=O)=O)cc3F)nc3cc(Cl)ccn23)C1 [Crystalline form III, methyl (S)-2-((7-chloro-2-(2,6-difluoro-4-sulfamoylphenyl)imidazo[1,2-a]pyridin-3-yl)methyl)morpholine-4-carboxylate]
- XRPD of remaining solid (FaSSIF, 0.5 h): Unchanged
- pH of filtrate (FaSSIF, 0.5 h): 6.4
- Solubility (FaSSIF, 0.5 h, 37° C.): 23 µg/mL (≈ 45.9 µM)
- XRPD of remaining solid (FaSSIF, 2 h): Unchanged
- pH of filtrate (FaSSIF, 2 h): 6.4
- Solubility (FaSSIF, 2 h, 37° C.): 25 µg/mL (≈ 49.9 µM)
- XRPD of remaining solid (FaSSIF, 24 h): Unchanged
- pH of filtrate (FaSSIF, 24 h): 6.4
- Solubility (FaSSIF, 24 h, 37° C.): 33 µg/mL (≈ 65.9 µM)
- XRPD of remaining solid (FeSSIF, 0.5 h): Unchanged
- pH of filtrate (FeSSIF, 0.5 h): 4.9
- Solubility (FeSSIF, 0.5 h, 37° C.): 74 µg/mL (≈ 148 µM)
- XRPD of remaining solid (FeSSIF, 2 h): Unchanged
- pH of filtrate (FeSSIF, 2 h): 4.8
- Solubility (FeSSIF, 2 h, 37° C.): 88 µg/mL (≈ 176 µM)
- XRPD of remaining solid (FeSSIF, 24 h): Unchanged
- pH of filtrate (FeSSIF, 24 h): 4.9
- Solubility (FeSSIF, 24 h, 37° C.): 120 µg/mL (≈ 240 µM)
- solubility at 0.5 h (SGF, 37 °C, simulated gastric fluid, thermodynamic from solid, SGF, 0.5 h, 37° C., read-out: Solubility (visual observation)): > 5000 µg/mL
- pH of filtrate (SGF, 0.5 h): 1.0
